According to US20260248134A1, “A METHOD FOR CONTROLLING WEEDS” (UPL MAURITIUS LIMITED, priority 2023, published 2026):

Legend:
Format in all cases: in vivo
[1] = tested on: Eleusine indica; assay: Control of weeds at pre-emergence stage (Example 9)
From the text: (§1) The effect of application of asulam was observed on the growth of weeds at pre-emergence stage for different application rates. The percentage (%) control of weeds has been evaluated and disclosed in Table 9.

[2] = tested on: Digitaria insularis; assay: as above
From the text: as §1

[3] = tested on: Ambrosia artemisifolia; assay: Control of Ambrosia artemisifolia weed at different application rates (Example 4)
From the text: The effect of application of asulam was observed on the growth of Ambrosia artemisifolia weed at 28, 35 and 49 DAA (days after application) at different application rates. The percentage (%) control of weeds has been evaluated and disclosed in Table 4.

COC(=O)NS(=O)(=O)c1ccc(N)cc1 [Asulam, asulam]
percentage (%) control of weeds ([1]; 1200 g a.i/ha, 28 DAA): 83%
percentage (%) control of weeds ([1]; 1200 g a.i/ha, 35 DAA): 78%
percentage (%) control of weeds ([1]; 1200 g a.i/ha, 49 DAA): 99%
percentage (%) control of weeds ([1]; 1500 g a.i/ha, 28 DAA): 88%
percentage (%) control of weeds ([1]; 1500 g a.i/ha, 35 DAA): 88%
percentage (%) control of weeds ([1]; 1500 g a.i/ha, 49 DAA): 99%
percentage (%) control of weeds ([1]; 1800 g a.i/ha, 28 DAA): 90%
percentage (%) control of weeds ([1]; 1800 g a.i/ha, 35 DAA): 91%
percentage (%) control of weeds ([1]; 1800 g a.i/ha, 49 DAA): 100%
percentage (%) control of weeds ([1]; 2250 g a.i/ha, 28 DAA): 92%
percentage (%) control of weeds ([1]; 2250 g a.i/ha, 35 DAA): 93%
percentage (%) control of weeds ([1]; 2250 g a.i/ha, 49 DAA): 100%
percentage (%) control of weeds ([1]; 2500 g a.i/ha, 28 DAA): 91%
percentage (%) control of weeds ([1]; 2500 g a.i/ha, 35 DAA): 92%
percentage (%) control of weeds ([1]; 2500 g a.i/ha, 49 DAA): 100%
percentage (%) control of weeds ([2]; 1000 g a.i/ha, 28 DAA): 94%
percentage (%) control of weeds ([2]; 1000 g a.i/ha, 35 DAA): 98%
percentage (%) control of weeds ([2]; 1000 g a.i/ha, 49 DAA): 100%
percentage (%) control of weeds ([2]; 1200 g a.i/ha, 28 DAA): 98%
percentage (%) control of weeds ([2]; 1200 g a.i/ha, 35 DAA): 100%
percentage (%) control of weeds ([2]; 1200 g a.i/ha, 49 DAA): 100%
percentage (%) control of weeds ([2]; 1500 g a.i/ha, 28 DAA): 99%
percentage (%) control of weeds ([2]; 1500 g a.i/ha, 35 DAA): 100%
percentage (%) control of weeds ([2]; 1500 g a.i/ha, 49 DAA): 100%
percentage (%) control of weeds ([2]; 1800 g a.i/ha, 28 DAA): 99%
percentage (%) control of weeds ([2]; 1800 g a.i/ha, 35 DAA): 100%
percentage (%) control of weeds ([2]; 1800 g a.i/ha, 49 DAA): 100%
percentage (%) control of weeds ([2]; 2250 g a.i/ha, 28 DAA): 100%
percentage (%) control of weeds ([2]; 2250 g a.i/ha, 35 DAA): 100%
percentage (%) control of weeds ([2]; 2250 g a.i/ha, 49 DAA): 100%
percentage (%) control of weeds ([2]; 2500 g a.i/ha, 28 DAA): 99%
percentage (%) control of weeds ([2]; 2500 g a.i/ha, 35 DAA): 100%
percentage (%) control of weeds ([2]; 2500 g a.i/ha, 49 DAA): 100%
Control of Ambrosia Artemisifolia ([3]; 1200 g a.i/ha, 28 DAA): 86%
Control of Ambrosia Artemisifolia ([3]; 1200 g a.i/ha, 35 DAA): 87%
Control of Ambrosia Artemisifolia ([3]; 1200 g a.i/ha, 49 DAA): 90%
Control of Ambrosia Artemisifolia ([3]; 1500 g a.i/ha, 28 DAA): 91%
Control of Ambrosia Artemisifolia ([3]; 1500 g a.i/ha, 35 DAA): 90%
Control of Ambrosia Artemisifolia ([3]; 1500 g a.i/ha, 49 DAA): 91%
Control of Ambrosia Artemisifolia ([3]; 2250 g a.i/ha, 28 DAA): 93%
Control of Ambrosia Artemisifolia ([3]; 2250 g a.i/ha, 35 DAA): 94%
Control of Ambrosia Artemisifolia ([3]; 2250 g a.i/ha, 49 DAA): 99%
Control of Ambrosia Artemisifolia ([3]; 2500 g a.i/ha, 28 DAA): 92%
Control of Ambrosia Artemisifolia ([3]; 2500 g a.i/ha, 35 DAA): 93%
Control of Ambrosia Artemisifolia ([3]; 2500 g a.i/ha, 49 DAA): 99%
